Assay results: patent EP0200024B1, “3-Cyano-pyridines, process for their preparation and their pharmaceutical use” (ARZNEIMITTELWERK DRESDEN GmbH, priority 1985, dated 1986)
Values belong to the compound of their own block, whether it stands above or below them.

Columns and labels:
Meerschweinchen = assay: Inhalative histamine bronchospasm, oral administration; assay type: in vivo; conditions: Cavia porcellus, 1 h, 60 min before inhaled 0,1 % histamine, 10 animals per dose, read-out: ED₅₀-Werte (Schutz vor Histamin-Bronchialkonstriktionen)
Procedure: Eine, in einem Ultraschallverdampfer vernebelte 0,1 %ige Histaminlösung induziert an männlichen Meerschweinchen (Körpermasse 200-300 g) innerhalb von 2 bis 3 Min. typische Bronchialkonstriktionen. Durch orale Verabreichung geeigneter Dosen der 3-Cyan-2-(heteroalkyl-1-hetero)-pyridine der Formel I 60 Min. vor der inhalativen Histamingabe wurden die Tiere innerhalb einer festgelegten Expositionszeit vor den durch Histamin verursachten Bronchialkonstriktionen geschützt. Für die Derivate von Beispiel 1.2, 1.6, 1.7 und 1.8 ergeben sich z.B. aus je 10 Tieren pro Dosis ED₅₀-Werte von 4,3 · 10⁻⁴, 6,0 · 10⁻⁴, 3,3 · 10⁻⁴ sowie 2,5 · 10⁻⁴ mol/kg, was auf deutliche bronchodilatatorische bzw. antiallergische Wirkungen hinweist.

[1] = tested on: Isolierter, spontanaktiver Vorhof des Meerschweinchens; assay: Isolated, spontaneously active atrium (inotropy and frequency); design: species or system Meerschweinchen; conditions: for EC30: Tyrode solution according to A.A. Alousi et al., 32 °C, read-out: 30%ige Steigerung der Inotropie bei Konzentrationen von; for chronotrope Wirkung / positiv inotrope Wirkung: result in words
Procedure: Für die Versuche wurden männliche Meerschweinchen mit einer Körpermasse von 400-500 g verwendet. Am isolierten, spontanaktiven Vorhof erfolgte nach einer 60 Min. währenden Adaptationszeit der Organpräparate in 32 °C temperierter carbogen-durchperlter Tyrodelösung die Untersuchung der Beeinflussung von Inotropie und Frequenz unter Einwirkung der 3-Cyan-2-(heteroalkyl-1-hetero)-pyridine der Formel I. Eine Reihe von Verbindungen zeigte eine starke und dosisabhängige positiv inotrope Wirkung. Bei Verwendung einer Tyrodelösung nach A.A. Alousi et al. [Circ. Res. 45, 666 (1979)] zeigen beispielsweise die Verbindungen von Beispiel 1.2, 1.7, 1.27, 3.3, 3.4, 3.5, 4.1 bzw. 4.3 eine 30%ige Steigerung der Inotropie bei Konzentrationen von 5,6 · 10⁻⁵, 5,4 · 10⁻⁶, 5,0 · 10⁻⁵, 5,8 · 10⁻⁵, 9,1 · 10⁻⁵, 1,6 · 10⁻⁴, 3,5 · 10⁻⁵ und 5,4 · 10⁻⁵ mol/l. Die Verbindung von Beispiel 1.27 zeigt bei einer Konzentration von 5 · 10⁻⁵ mol/l eine Abnahme der Frequenz um 15 %. Die Verbindung von Beispiel 1.8 zeigt bei Verwendung einer Tyrodelösung mit der Zusammensetzung (mmol/l): NaCl 136,9; KCl 2,7; CaCl₂ 1,8; MgCl₂ 1,0; NaHCO₃ 11,9; NaH₂PO₄ 0,4; Glucose 16,5 eine 30%ige Steigerung der Inotropie bei einer Konzentration von 1,2 · 10⁻⁴ mol/l.

[2] = tested on: Narkotisiertes Minischwein; assay: Anaesthetised minipig i.v. (dp/dtmax, blood pressure); assay type: in vivo, Zwergschweinen (Mini-LEWE); conditions: result in words
Excerpt: Die Untersuchungen wurden an 6 männlichen Zwergschweinen (Mini-LEWE) mit einem durchschnittlichen Gewicht von 50 kg durchgeführt. Die Tiere wurden unter N₂O-O₂-Beatmung (3:1) und Muskelrelaxation (d-Tubocurarin) thorakotomiert. Der Blutdruck wurde in der Aorta ascendens mittels Transducer und der Druck im linken Ventrikel (LVP) mit einem Tipmanometer gemessen. Aus dem LVP-Signal wurde über ein Differenzierglied dp/dtmax ermittelt. Aus dem EKG wurde mit einem Kardiotachometer die Herzfrequenz zusammen mit anderen Signalen registriert. Das Herz-Zeit-Volumen wurde mit einem elektromagnetischen Flowmeter gemessen und über einen Integrator das Herz-Schlag-Volumen ermittelt. Einige der 3-Cyan-2-(heteroalkyl-1-hetero)-pyridine der Formel I zeigen an diesem Modell eine starke und dosisabhängige Erhöhung der Kontraktilität des Herzens (dp/dtmax) sowie teilweise eine signifikante Senkung des totalen peripheren Gesamtwiderstandes. So wurden beispielsweise unter den Verbindungen von Beispiel 1.2 und 1.7 bei einer Dosis von 2,0 · 10⁻⁶ bzw. 5,5 · 10⁻⁷ eine 50%ige Steigerung des Kontraktilitätsparameters dp/dtmax sowie bei einer Dosis von 1,1 · 10⁻⁶ bzw. 1,7 · 10⁻⁶ eine 10%ige Senkung des diastolischen Blutdruckes, der neben der beobachteten Steigerung des Herzzeitvolumens eine wesentliche Größe zur Bestimmung des totalen peripheren Gefäßwiderstandes darstellt, gefunden.

Langendorff-Herz = assay: Langendorff heart in vitro (isolated perfused, freely beating heart; inotropy, chronotropy, coronary flow); design: species or system Meerschweinchen; conditions: for EC30: molarity of solution, 0,1 ml bolus into aortic stump, giving 30 % increase of inotropy, read-out: Erhöhung der Inotropie um 30 % bei Applikation von je 0,1 ml einer ... molaren Lösung; for EC100: molarity of solution, 0,1 ml bolus, giving 100 % increase of coronary flow, read-out: Erhöhung des Koronardurchflusses um 100 % bei Applikation von je 0,1 ml einer ... molaren Lösung; for positiv chronotrope Wirkung / positiv inotrope Wirkung: result in words
Procedure: Für die Versuche wurden männliche Meerschweinchen mit einer, Körpermasse von 300-350 g eingesetzt. An isolierten, mit carbogenbegaster Tyrodelösung von 37 °C durchströmten, frei schlagenden Herzen, wurden unter konstantem Druck die Kontraktionskraft (Inotropie), die Frequenz (Chronotropie) und der Koronardurchfluß unter dem Einfluß der 3-Cyan-2-(heteroalkyl-1-hetero)-5-(pyrid-4-yl)-pyridine der Formel I untersucht. Dazu wurden jeweils 0,1 ml der entsprechend molaren Substanzlösungen als Bolus direkt in den Aortenstumpf appliziert. Die 3-Cyan-2-(heteraalkyl-1-hetera)-5-(pyrid-4-yl)-pyridine zeigten eine teilweise starke und konzentrationsabhängige positiv inotrope und koronardilatatorische Wirkung. Die positiv chronotrope Wirkung war deutlich geringer, ausgeprägt. Beispielsweise zeigen die Verbindungen der Beispiele 1.2, 1.6, 1.7 und 1.8 eine Erhöhung der Inotropie um 30 % bei Applikation von je 0,1 ml einer 3,0 · 10⁻³, 2,2 · 10⁻², 2,0 · 10⁻⁴ bzw. 1,0 · 10⁻³ molaren Lösung und eine Erhöhung des Koronardurchflusses um 100 % bei Applikation von je 0,1 ml einer 6,0 · 10⁻³, 6,5 · 10⁻², 1,1 · 10⁻² bzw. 1,3 · 10⁻² molaren Lösung. Die Verbindungen der Beispiele 2.2, 2.3 und 2.4 weisen bei Applikation von je 0,1 ml einer 10⁻² molaren Stammlösung in die Aorta eine Erhöhung der Inotropie um 51 %, 38 % und 31 % sowie eine Erhöhung des Koronardurchflusses um 59 %, 99 % bzw. 88 % auf.

[3] = tested on: Samenleiter von Meerschweinchen; assay: Noradrenaline antagonism in vitro (noradrenaline contraction of isolated vas deferens); conditions: for IC50: Cavia porcellus, compound given 1 min before submaximal noradrenaline concentration, read-out: ED₅₀-Werte (Hemmung der Noradrenalinkontraktion); for Hemmung der Noradrenalinkontraktion: result in words
Procedure: Die in Warmblüterphosphattyrode präparierten Samenleiter von Meerschweinchen (ca. 400 g Körpermasse) wurden 60 Min. im Organbad adaptiert. Anschließend wurden die Kontraktionen unter Gabe von Noradrenalin isotonisch registriert. Die 3-Cyan-2-(heteroalkyl-1-hetero)-pyridine der Formel I wurden 1 Min vor den jeweils submaximal reagierenden Noradrenalinkonzentrationen in das Organbad appliziert. […] Für die Verbindungen von Beispiel 1.2, 1.6, 1.7 und 1.8 ergaben sich beispielsweise ED₅₀-Werte von 2,2 · 10⁻⁵, 1,6 · 10⁻⁴, 2,5 · 10⁻⁴ sowie 1,3 · 10⁻⁴ mol/l.

IC50 [3]: 22 µM
Compound: N#Cc1cc(-c2ccncc2)cnc1NCCO [Beispiel 1.2, 3-Cyan-2-(2-hydroxy-ethylamino)-5-(pyrid-4-yl)-pyridin]
ED50 (Meerschweinchen): 430 µmol/kg
EC30 [1]: 56 µM
chronotrope Wirkung [1]: relative geringer positiv chronotroper Aktivität
positiv inotrope Wirkung [1]: ausgeprägte und dosisabhängige positiv inotrope Wirkung
Senkung des diastolischen Blutdruckes [2]: dosisabhängige signifikante Senkung
Steigerung des Kontraktilitätsparameters dp/dtmax [2]: beträchtliche dosisabhängige Steigerung
EC30 (Langendorff-Herz): 3000 µM
EC100 (Langendorff-Herz): 6000 µM
positiv chronotrope Wirkung (Langendorff-Herz): relative geringer positiv chronotroper Aktivität
positiv inotrope Wirkung (Langendorff-Herz): ausgeprägte und dosisabhängige positiv inotrope Wirkung
Hemmung der Noradrenalinkontraktion [3]: konzentrationsabhängige Hemmung

IC50 [3]: 250 µM
Compound: N#Cc1cc(-c2ccncc2)cnc1N1CCOCC1 [Beispiel 1.7, 3-Cyan-2-morpholino-5-(pyrid-4-yl)-pyridin]
ED50 (Meerschweinchen): 330 µmol/kg
EC30 [1]: 5.4 µM
chronotrope Wirkung [1]: relative geringer positiv chronotroper Aktivität
positiv inotrope Wirkung [1]: ausgeprägte und dosisabhängige positiv inotrope Wirkung
Senkung des diastolischen Blutdruckes [2]: dosisabhängige signifikante Senkung
Steigerung des Kontraktilitätsparameters dp/dtmax [2]: beträchtliche dosisabhängige Steigerung
EC30 (Langendorff-Herz): 200 µM
EC100 (Langendorff-Herz): 11000 µM
positiv chronotrope Wirkung (Langendorff-Herz): relative geringer positiv chronotroper Aktivität
positiv inotrope Wirkung (Langendorff-Herz): ausgeprägte und dosisabhängige positiv inotrope Wirkung
Hemmung der Noradrenalinkontraktion [3]: konzentrationsabhängige Hemmung
